Test results: patent US4210667A, “Pharmaceutical preparations containing coumarin carboxylic acid derivatives” (Pfizer Inc., priority 1979, dated 1980)

Columns and labels:
aldose reductase = target: T1, aldose reductase (Bos taurus, UniProt P16116); assay: Aldose reductase inhibitory activity (partially purified enzyme from calf lens); assay type: biochemical; conditions: 10^-4 M, relative to untreated controls, Examples 2, 4, 5: average of two tests, read-out: Degree of Inhibition at 10^-4 Molar
T1 construct: partially purified aldose reductase enzyme obtained from calf lens; from tissue; host or cells: calf lens
Excerpt: (§1) The ability of the active ingredients of the preparations, the derivatives,to control chronic diabetic complications and enzymatic reduction of aldoses may be determined by a number of standard biological or pharmacological tests. These include (1) measuring the ability to inhibit the enzyme activity or isolated aldose reductase; (2) measuring the ability to reduce or inhibit sorbitol accumulation in the sciatic nerve of acutely streptozotocinized (i.e., diabetic) rats; (3) measuring the ability to reverse already-elevated sorbitol levels in the sciatic nerve and lens of chronic streptozocin-induced diabetic rats; (4) measuring the ability to prevent or inhibit galactitol formation in the lens of acutely galactosemic rats; and (5) measuring the ability to delay cataract formation and reduce the severity of lens opacities in chronic galactosemic rats.
The derivatives prepared in Examples 1-7 were tested for their ability to reduce or inhibit aldose reductase enzyme activity, following the procedure described in U.S. Pat. No. 3,821,383 and based on the procedure of Hayman et. al., Journal of Biological Chemistry, 240, 877 (1965). The substrate employed was partially purified aldose reductase enzyme obtained from calf lens. The drugs were tested at a level of 10^-4 M to determine the degree of inhibition of enzyme activity relative to untreated controls.

[1] = system: sorbitol accumulation in the sciatic nerve of streptozotocinized (i.e., diabetic) rats; assay: Inhibition of sorbitol accumulation in the sciatic nerve of streptozotocinized (diabetic) rats; assay type: in vivo, rat; conditions: 25 mg./kg. t.i.d. oral, at 4, 8 and 24 hours after streptozotocin; measured at 27 hours; vs untreated control; Examples 1, 5: average of two tests
Excerpt: as §1
Some of the Examples of derivatives prepared above were also tested for their ability to reduce or inhibit sorbitol accumulation in the sciatic nerve of streptozotocinized (i.e., diabetic) rats essentially by the procedure described in U.S. Pat. No. 3,821,383. In the present study, the amount of sorbitol accumulation in the sciatic nerves was measured 27 hours after induction of diabetes. The compounds were administered orally at the dose level indicated at 4, 8 and 24 hours following the administration of streptozotocin. The results obtained in this manner are presented in terms of percent inhibition (%) afforded by the test compound compared to the control where no compound was administered (i.e., the untreated animal where sorbitol levels normally rise from approximately […] tissue to as high as […] tissue in the 27-hour test period).

Compound	inhibition at 100 µM (aldose reductase) [%]	% Inhibition at Dose (sorbitol accumulation in sciatic nerve) [1] [%]
Cc1cc2oc(=O)c(C)c(CC(=O)O)c2cc1C [Example 1, 3,6,7-trimethylcoumarin-4-acetic acid]	81	21
Cc1cc(Cl)cc2c(C(=O)O)cc(=O)oc12 [Example 6, 6-chloro-8-methylcoumarin-4-carboxylic acid]	65	–
O=C(O)Cc1cc(=O)oc2c1cc(Cl)c1ccccc12 [Example 2, 6-chloro-1:2-alpha-naphthapyrone-4-acetic acid]	91	9

Second part, led by results:

inhibition at 100 µM (aldose reductase) [%]	Compound	% Inhibition at Dose (sorbitol accumulation in sciatic nerve) [1] [%]
91	Cc1cc(C)c2c(CC(=O)O)cc(=O)oc2c1 [Example 3, 5,7-dimethylcoumarin-4-acetic acid]	11
94	Cc1ccc2c(CC(=O)O)cc(=O)oc2c1 [Example 4, 7-methylcoumarin-4-acetic acid]	–
94	Cc1cc2oc(=O)cc(CC(=O)O)c2cc1C [Example 5, 6,7-dimethylcoumarin-4-acetic acid]	4
